According to PubChem BioAssay AID504520 (The Scripps Research Institute Molecular Screening Center, 2011):
Activity calls are given as the source filed them. No rule for the calls is given here.

What was measured:
Test in all cases: competitive ABPP of LYPLA1 versus anti-target hydrolases – fluorescence, gel-based ABPP, mouse proteome, late-stage follow-up (AID 504520);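 also: soluble proteome from BW5147 murine T cells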
Conditions in all cases: FP-rhodamine fluorescence, stronger effect = higher value
LYPLA1 = tested on: LYPLA1
[1] = biological target: Platelet-activating factor acetylhydrolase 2, cytoplasmic (Mus musculus) (UniProt Q8VDG7)
ESD = tested on: ESD
ABHD11 = tested on: ABHD11
LYPLA2 = tested on: LYPLA2

Platelet-activating factor acetylhydrolase 2, cytoplasmic (Mus musculus), sequence (Q8VDG7 whole entry, looked up): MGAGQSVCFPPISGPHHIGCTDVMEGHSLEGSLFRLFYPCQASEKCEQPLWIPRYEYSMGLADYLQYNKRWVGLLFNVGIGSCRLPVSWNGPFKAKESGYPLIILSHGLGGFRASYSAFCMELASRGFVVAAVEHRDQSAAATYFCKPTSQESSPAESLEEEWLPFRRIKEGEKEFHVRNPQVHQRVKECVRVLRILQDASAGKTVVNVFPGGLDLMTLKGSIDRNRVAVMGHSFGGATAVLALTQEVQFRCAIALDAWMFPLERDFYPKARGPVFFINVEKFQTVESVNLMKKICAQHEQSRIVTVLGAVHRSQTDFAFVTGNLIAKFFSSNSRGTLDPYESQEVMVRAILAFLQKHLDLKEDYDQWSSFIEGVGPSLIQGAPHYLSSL

Structure (SMILES) | inhibition (LYPLA1; at 0.75 µM) | inhibition (LYPLA1; inhibition, at 0.03 µM) [%] | inhibition (LYPLA1; inhibition, at 0.15 µM) [%] | inhibition ([1]; PAFAH2, at 0.75 µM) | inhibition ([1]; PAFAH2, inhibition, at 0.03 µM) [%] | inhibition ([1]; PAFAH2, inhibition, at 0.15 µM) [%] | inhibition (ESD; at 0.75 µM) | inhibition (ESD; inhibition, at 0.03 µM) [%] | inhibition (ESD; inhibition, at 0.15 µM) [%] | inhibition (ABHD11; at 0.75 µM) | inhibition (ABHD11; inhibition, at 0.03 µM) [%] | inhibition (ABHD11; inhibition, at 0.15 µM) [%] | inhibition (LYPLA2; at 0.75 µM) | inhibition (LYPLA2; inhibition, at 0.03 µM) [%] | inhibition (LYPLA2; inhibition, at 0.15 µM) [%]
COCCCC1CCCCN1C(=O)n1ncc(C(O)(c2ccccc2)c2ccccc2)n1 (stereo not given) | 0% (inactive) | 0 | 0 | 0% (inactive) | 0 | 0 | 0% (inactive) | 0 | 0 | 75% | 0 | 50 | 0% (inactive) | 0 | 0
O=C(N1CCCCC1)n1ncc(C(O)(c2ccccc2)c2ccccc2)n1 | 100% | 50 | 100 | 0% (inactive) | 0 | 0 | 25% (inactive) | 0 | 0 | 100% | 100 | 100 | 0% (inactive) | 0 | 0
O=C(N1CCCC(Cc2ccccc2)C1)n1cc(C(O)(c2ccccc2)c2ccccc2)nn1 (stereo not given) | 100% | 0 | 50 | 0% (inactive) | 0 | 0 | 0% (inactive) | 0 | 0 | 100% | 100 | 100 | 25% (inactive) | 0 | 0
O=C(N1CCCCC1)n1ncc(C(O)c2ccccc2)n1 (stereo not given) | 100% | 50 | 50 | 0% (inactive) | 0 | 0 | 0% (inactive) | 0 | 0 | 100% | 75 | 100 | 0% (inactive) | 0 | 0
COc1ccc2cc(-c3cnn(C(=O)N(c4ccccc4)c4ccccc4)n3)ccc2c1 | 0% (inactive) | 0 | 0 | 50% (inactive) | 0 | 0 | 0% (inactive) | 0 | 0 | 25% (inactive) | 0 | 0 | 0% (inactive) | 0 | 0

Results, then the molecule that gave them:

inhibition (LYPLA1; at 0.75 µM) | inhibition (LYPLA1; inhibition, at 0.03 µM) [%] | inhibition (LYPLA1; inhibition, at 0.15 µM) [%] | inhibition ([1]; PAFAH2, at 0.75 µM) | inhibition ([1]; PAFAH2, inhibition, at 0.03 µM) [%] | inhibition ([1]; PAFAH2, inhibition, at 0.15 µM) [%] | inhibition (ESD; at 0.75 µM) | inhibition (ESD; inhibition, at 0.03 µM) [%] | inhibition (ESD; inhibition, at 0.15 µM) [%] | inhibition (ABHD11; at 0.75 µM) | inhibition (ABHD11; inhibition, at 0.03 µM) [%] | inhibition (ABHD11; inhibition, at 0.15 µM) [%] | inhibition (LYPLA2; at 0.75 µM) | inhibition (LYPLA2; inhibition, at 0.03 µM) [%] | inhibition (LYPLA2; inhibition, at 0.15 µM) [%] | Structure (SMILES)
0% (inactive) | 0 | 0 | 75% (inactive) | 0 | 0 | 0% (inactive) | 0 | 0 | 0% (inactive) | 0 | 0 | 0% (inactive) | 0 | 0 | O=C(N(c1ccccc1)c1ccccc1)n1ncc(-c2ccc(-c3ccccc3)cc2)n1
0% (inactive) | 0 | 0 | 25% (inactive) | 0 | 0 | 0% (inactive) | 0 | 0 | 0% (inactive) | 0 | 0 | 0% (inactive) | 0 | 0 | O=C(N(c1ccccc1)c1ccccc1)n1ncc(C(O)(c2ccccc2)c2ccccc2)n1
0% (inactive) | 0 | 0 | 25% (inactive) | 0 | 0 | 0% (inactive) | 0 | 0 | 100% | 0 | 100 | 0% (inactive) | 0 | 0 | O=C(N(c1ccccc1)c1ccc2ccccc2c1)n1ncc(C(O)(c2ccccc2)c2ccccc2)n1
0% (inactive) | 0 | 0 | 75% (inactive) | 0 | 0 | 0% (inactive) | 0 | 0 | 0% (inactive) | 0 | 0 | 0% (inactive) | 0 | 0 | O=C(N(c1ccccc1)c1ccccc1)n1ncc(-c2ccc(Oc3ccccc3)cc2)n1
